Reference: patent publication US7385051B2, “Fluorescent N2,N3-etheno-purine (2′-deoxy) riboside derivatives and uses thereof” (Bar-llan University, priority 2005, dated 2008)
“And” between values parts separate entries of the source, which are not always exact repeats. Equal values may be shown once. “Also recorded” adds a separate entry of the source. Read-outs that look alike come from different tables or passages of the source.

Tests used:
rat brain P2Y1-receptor = target: T1, rat brain P2Y1-receptor (Rattus norvegicus, UniProt P49651); assay: Agonist-induced Ca2+ release in HEK 293 cells stably transfected with P2Y1-receptor; assay type: cell-based; settings: HEK 293 cells with rat brain P2Y1-receptor
T1 construct: expressed in transfected cells
T1 sequence (P49651 whole entry): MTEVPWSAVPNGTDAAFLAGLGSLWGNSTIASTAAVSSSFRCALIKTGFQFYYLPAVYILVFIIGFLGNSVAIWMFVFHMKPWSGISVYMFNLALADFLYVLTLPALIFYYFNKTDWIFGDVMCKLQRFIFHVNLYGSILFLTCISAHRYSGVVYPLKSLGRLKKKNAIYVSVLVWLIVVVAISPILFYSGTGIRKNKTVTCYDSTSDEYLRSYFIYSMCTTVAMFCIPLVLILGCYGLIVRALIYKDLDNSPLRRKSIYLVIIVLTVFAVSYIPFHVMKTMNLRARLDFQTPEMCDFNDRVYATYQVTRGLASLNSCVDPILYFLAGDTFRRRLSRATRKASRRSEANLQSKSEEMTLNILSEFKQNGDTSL
Text: To examine the efficacy of analogues 30a,d in a functional assay, we tested them by the agonist-induced Ca^2+ release in HEK 293 cells stably transfected with rat brain P2Y1-receptor (FIG. 6) (Voehringer et al., 2000). […] However, a benzyl substitution at N^6 of 30a, as in analogue 30d, reduced the ligand's potency. […] EC50 value in the range of 10^−6 M.

[1] = cited from earlier work
Fluorescence life-time = assay type: physicochemical
Method: Fluorescent emission is a random process, and the excited molecules emit photons within a certain time, usually of the order of ns. For N^2,N3-ε-A, 4, and N^2,N3-ε-2′-deoxy-A, 23, fluorescence life times of 2.26 and 2.1 ns, respectively, were measured. These life times are relatively long and are therefore more convenient for the fluorescence measurements.

[2] = Emission (fluorescence) spectra and quantum yield, quinine sulfate as reference; assay type: physicochemical; set-up: Emission λmax: unit not given here; settings: for Maximum emission (λmax) in water / Quantum yield (φ) in water: excitation at 290 nm (4), 330 nm (17); for φ290: 290 nm
Method: Emission spectra of compounds 4 and 23 were measured using an Aminco-Bowman series 2 Luminescence Spectrometer. Measurement conditions included: 740-750 V sensitivity, and a 4 or 2 nm slit in the emission spectra for aqueous or organic solutions, respectively. Emission spectra were corrected by the subtraction of the medium's emission spectrum. Spectra were determined in dilute HCl or NaOH solutions in the pH range of 1.6-12.3 or at pH 7. The concentration of the samples of 4 was of the order of 4.85×10^−5 M for aqueous and organic solutions and of 23 in the order of 5.04×10^−5 M for aqueous solutions. All organic solvents were freshly distilled prior to emission measurements. Measurements of the emission of the nucleoside analogue were conducted with subtraction of the solvent's emission. The quantum yield of each compound was calculated from the observed absorbance at 290 nm and the area of the fluorescence emission band. Quinine sulfate was used as reference compound assuming a quantum yield value of 0.55 (Andrew et al., 1988).

[3] = pKa determination by pH-titration monitored by fluorescence spectroscopy; assay type: physicochemical
Text: H-bonding pattern of N^2,N3-ε-A is dependent not only on tautomeric equilibria, but also on acid-base equilibria, namely, on protonation states. For analyzing the protonation state of N^2,N3-ε-A at physiological pH, we determined the pKa values of this system.
Specifically, we monitored the pH-titration of N^2,N3-E-A, 4, by fluorescence spectroscopy. 1×10^−5 M solutions of N^2,N3-ε-A-5′-mono-phosphate were titrated by HCl in the pH range of 1.5-7.0.

[4] = Absorption spectra (UV-Visible) in aqueous solution at several pH values; assay type: physicochemical; set-up: Absorption λmax: unit not given here
Method: Absorption spectra of compounds 4 and 23 were measured using a Varian array-1E UV-Visible spectrometer. Spectra were determined in dilute HCl or NaOH solutions in the pH range of 1.6-12.3 or at pH 7.0. The concentration of the samples of 4 in aqueous solutions and in organic solvents was of the order of 4.85×10^−5 M and of 23 in aqueous solutions was of the order of 5.04×10^−5 M.

[5] = Stability under automated DNA synthesis conditions (TLC and MS); assay type: physicochemical
Method: In order for a compound to be used in automated DNA synthesis, it has to be able to withstand the conditions of the different reactions in the synthesis. For example, it has to be stable in the treatment with 28% ammonia for two hours at 60° C.

[6] = cited from earlier work; remark: listed apart in the source
[7] = in DMF (εd 37.6), 4.85 × 10^−5 M
[8] = in DMSO (εd 47.6), 4.85 × 10^−5 M
[9] = in Dioxane (εd 2.2), 4.85 × 10^−5 M
[10] = 1×10^−5 M solutions of the 5′-mono-phosphate titrated by HCl, pH 1.5-7.0, listed as N^2,N3-ε-A

## O=P(O)(O)OP(=O)(O)OP(=O)(O)OCC1OC(n2cnc3c(NCc4ccccc4)nc4nccn4c32)C(O)C1O (centres unmarked) [Compound 30d, N^6-Benzyl-N^2,N3-ethenoadenosine-5′-triphosphate]
Rat brain P2Y1-receptor; Ca^2+ release
  EC50: ~1 µM
Rat brain P2Y1-receptor
  Potency at P2Y1-R compared to ATP / 30a: reduction by one order of magnitude; also recorded: significant reduction of the affinities

## O=c1c2ncn(C3O[C@H](CO)[C@@H](O)[C@H]3O)c2[nH]c2nccn12 (some centres unmarked) [Compound 5]
[1]; Sattsangi et al., 1977, Kusmierek et al., 1992
  Fluorescence: non-fluorescent

## Nc1nc2nccn2c2c1ncn2C1OC(CO)C(O)C1O (centres unmarked) [Compound 4, N^2,N3-etheno-adenosine]
Fluorescence life-time
  Fluorescence life time: 2.26 ns
[2]; acidic pH
  Fluorescence at acidic pH: significant fluorescence
[2]; [7]
  Emission λmax: 448
  φ (quantum yield): 0.082
[2]; [8]
  Emission λmax: 458
  φ (quantum yield): 0.085
[2]; [9]
  Emission λmax: 434
  φ (quantum yield): 0.042
[2]
  Maximum emission (λmax) in water: 420 nm
  Quantum yield (φ) in water: 0.03
[2]; pH 1.6, 4.85 × 10−5 M
  Emission λmax: 396
  φ (quantum yield): 0.021
[2]; pH 7.0, 4.85 × 10−5 M
  Emission λmax: 420
  φ (quantum yield): 0.032
[2]; pH 12.3, 4.85 × 10−5 M
  Emission λmax: 420
  φ (quantum yield): 0.031
[3]; [10]
  pKa (first; assigned to the exocyclic amine): 1.92
  pKa (second; attributed to N8): 3.16
  pKa (third; N7, most basic nitrogen): 6.09
[3]; pH 1.5
  pKa (first; assigned to the exocyclic amine): 1.92±0.08
  pKa (second; attributed to N8): 3.16±0.24
  pKa (third; N7, most basic nitrogen): 6.09±0.16
[3]; pH 7.4
  Non-protonated fraction at physiological pH: 96%
[4]; in water
  Absorption bands in water: 234 nm and 274 nm
[4]; in water, 234 nm
  Absorption coefficient of the band at 234 nm: 12.6×10^3
[4]; in water, 274 nm
  Absorption coefficient of the band at 274 nm: 3.3×10^3
[4]; pH 1.6, 4.85 × 10^−5 M
  Absorption λmax: 224 and 268
[4]; pH 1.6, band at λmax 224
  εd: 6.17 × 10^3
[4]; pH 1.6, band at λmax 268
  εd: 14.22 × 10^3
[4]; pH 7.0, 4.85 × 10^−5 M
  Absorption λmax: 234 and 274
[4]; pH 7.0, band at λmax 234
  εd: 12.58 × 10^3
[4]; pH 7.0, band at λmax 274
  εd: 3.31 × 10^3
[4]; pH 12.3, 4.85 × 10^−5 M
  Absorption λmax: 234 and 276
[4]; pH 12.3, band at λmax 234
  εd: 13.89 × 10^3
[4]; pH 12.3, band at λmax 276
  εd: 3.69 × 10^3

## OC[C@H]1O[C@@H](n2cnc3c2ncn2ccnc32)[C@H](O)[C@@H]1O [Compound 1, N1,N^6-etheno-adenosine]
[1]; Secrist et al., 1972, Thomas and Leonard, 1976
  Emission λmax: 415 nm

## CSc1nc2nccn2c2c1ncn2C1OC(CO)C(O)C1O (centres unmarked) [Compound 17, N^2,N3-etheno-6-methylthio-purine riboside]
[2]
  Maximum emission (λmax) in water: 520 nm and 518 nm
  Quantum yield (φ) in water: 0.15
[2]; pH 1.6, 5.04 × 10^−5 M
  Emission λmax: 492 and 516
  φ (quantum yield): 0.037
[2]; pH 7.0, 5.04 × 10^−5 M
  Emission λmax: 494 and 518
  φ (quantum yield): 0.152
[2]; pH 12.3, 5.04 × 10^−5 M
  Emission λmax: 494 and 520
  φ (quantum yield): 0.067
[4]; in water
  Absorption bands in water: 227 nm and 247 nm and 307 nm and 345 nm
[4]; pH 1.6, 5.04 × 10^−5 M
  Absorption λmax: 227 and 243 and 301 and 331
[4]; pH 1.6, band at λmax 227
  εd: 16.52 × 10^3
[4]; pH 1.6, band at λmax 243
  εd: 13.57 × 10^3
[4]; pH 1.6, band at λmax 301
  εd: 7.39 × 10^3
[4]; pH 1.6, band at λmax 331
  εd: 7.13 × 10^3
[4]; pH 7.0, 5.04 × 10^−5 M
  Absorption λmax: 231 and 247 and 307 and 345
[4]; pH 7.0, band at λmax 231
  εd: 16.09 × 10^3
[4]; pH 7.0, band at λmax 247
  εd: 13.25 × 10^3
[4]; pH 7.0, band at λmax 307
  εd: 7.07 × 10^3
[4]; pH 7.0, band at λmax 345
  εd: 2.90 × 10^3
[4]; pH 12.3, 5.04 × 10^−5 M
  Absorption λmax: 233 and 307
[4]; pH 12.3, band at λmax 233
  εd: 19.29 × 10^3
[4]; pH 12.3, band at λmax 307
  εd: 5.95 × 10^3

## Nc1nc2nccn2c2c1ncn2C1CC(O)C(CO)O1 (centres unmarked) [Compound 23]
[5]; 2% dichloroacetic acid, 2 min
  Stability against 2% dichloroacetic acid: stable
[5]; 28% ammonia, two hours at 60° C.
  Stability in 28% ammonia: stable
Fluorescence life-time
  Fluorescence life time: 2.1 ns
[2]; pH 7.0
  φ290: 0.085
[4]; pH 7.0
  ε (238 nm): 4.67×10^3
  ε (308 nm): 1.23×10^3

## O=c1nc2[nH]ccn2c2c1ncn2[C@@H]1O[C@H](CO)[C@@H](O)[C@H]1O [Compound 3, N^2,N3-etheno-guanosine]
[6]; literature (Glemarec et al., 1991 for the ε-G compounds)
  pKa: 2.11
[6]; literature value as quoted
  pKa of N7: 5.20
[1]; excitation at 280 nm, Sattsangi et al., 1977
  Maximum emission: 410 nm
[1]; in water, Kusmierek et al., 1987
  Emission maximum in water: 410 nm

## Nc1c2ncn(C3CC(O)C(CO)O3)c2nc2nccn12 (centres unmarked) [Compound 25, N1,N^2-etheno-2′-deoxy-adenosine]
[2]; pH 7.0
  φ290: 0.07
[4]; pH 7.0
  ε (238 nm): 4.12×10^3
  ε (308 nm): 1.02×10^3
